Measurements from US20070072815A1, “Methods and kits to increase the efficiency of oligonucleotide-directed nucleic acid sequence alteration” (priority 2004, published 2007).
Where “and” joins values, the source holds several entries; their conditions need not be identical. Equal values may be shown once. Entries after “also recorded” stand apart in the source; their conditions may differ.

What was measured:
[1] = system: HYGeGFP fusion gene target in Saccharomyces cerevisiae strain LSY678; assay: Hygromycin resistance gene correction in yeast LSY678; format: cell-based; conditions: synchronized with alpha factor and released into HU, specific time after release from G1/S border
Text: An alternative model system to measure oligonucleotide-directed sequence alteration has been developed in the yeast Saccharomyces cerevisiae strain LSY678 (MATa leu 2-3, 112 trpl-1 ura 3-1 his 3-1, 15 ade2-1 can 1-100). The strain has integrated an HYGeGFP fusion gene target containing a single point mutation at base pair 137 in the coding region of the hygromycin gene, rendering it unable to confer resistance to the antibiotic. Oligonucleotide-directed sequence alteration can repair the mutation and restore hygromycin resistance. For example, in one experiment, LSY678 cells are synchronized with alpha factor and released, or synchronized with alpha factor and released into hydroxyurea (HU), prior to electroporation with a correcting oligonucleotide. The combination of alpha factor and HU increased correction efficiency 25-fold as compared to cells treated with neither agent, but only when oligonucleotide treatment is performed at a specific period of time after release from the G1/S border. See also U.S. patent application publication no. 20030207451.

[2] = system: mutant eGFP gene in DLD-1-1 cells; assay: eGFP gene correction (oligonucleotide-directed sequence alteration) in DLD-1-1 cells, FACS readout; format: cell-based
DLD-1-1 cells = assay: Cell viability / cell death by propidium iodide FACS; conditions: HU or VP16 prior to electroporation, propidium iodide
Experimental: Flow cytometry analysis: eGFP fluorescence of corrected cells is measured by a Becton Dickinson FACSCalibur™ flow cytometer (Becton Dickinson, Rutherford, N.J.). Cells are harvested 48 hrs after electroporation and resuspended in FACS buffer (0.5% BSA, 2 mM EDTA, 2 μg/ml propidium iodide in PBS). More specifically, the program is set for the appropriate cell size (forward scatter versus side scatter) and the population of single-cells is gated for analysis. Using the negative control (minus PI, minus GFP) the background fluorescence was set by positioning the cells in the 10^1 decade of the dot plot by adjusting the voltage for FL1 (GFP) and FL2 (PI). The composition is then set for multi-fluorochrome experiments using a GFP control sample containing no PI and increasing the compensation to bring the signal toward the FL1 parameter. Finally, the last control, PI and no GFP is used to increase the compensation to bring the signal toward the FL2 parameter. Samples of 50,000 cells each are analyzed and those cells being GFP positive and PI negative are scored as corrected cells.
For cells that were not previously treated with caffeine, caffeine is added to the media to a final concentration of 4 mM in the 60 mM dish immediately following electroporation (the “recovery phase”). For cells that were pre-treated with caffeine, there is no addition of caffeine during the recovery phase. After 24 hrs of recovery, the media is changed and caffeine (4 mM final concentration) is added back to the culture. After 48 hrs of recovery, the samples are read by FACS: eGFP fluorescence reflects gene alteration (correction), and propidium iodide (PI) staining reflects cellular viability.

DNA of DLD-1-1 cells = assay: Pulsed-field gel electrophoresis of DNA damage (double strand breaks); format: cell-based; conditions: HU 0.3, 1 or 5 mM; VP16 0.5, 1 or 3 μM; 24 hours
Experimental: The cells are released by trypsinization and melted in the agarose inserts. The agarose inserts are incubated in 0.5M EDTA—1% N-laurosylsarcosine—proteinase K (1 mg/ml) at 50° C. for 48 hrs and then washed four times in TE buffer prior to loading on a 1% agarose gel (Pulse-Field Certified Agarose, Bio-Rad, Hercules, Calif.) and DNA separation by pulsed-field gel electrophoresis is carried out for 24 hrs (Bio-Rad, 120° field angle, 60 to 240s switch time, 4 V/cm). The gel is subsequently stained with ethidium bromide and analyzed with AlphaImager™ 2200. (Alpha Innotech Corp., San Leandro, Calif.).
The effects of MMS and bleomycin on oligonucleotide-directed gene alteration are determined as follows. DLD-1-1 cells are seeded in 100 mm dishes at 2×10^6 cells per plate and immediately treated with 0.2 μM MMS or 0.75 μM bleomycin. The cells are then grown for 24 hours, until approximately 50% confluent, and washed twice with PBS. A portion of each population of cells is removed for DNA analysis by pulsed-field electrophoresis, as described in Example 1. The correcting oligo EGFP/72NT (10 μg) is then added and the cells are electroporated as in Example 3. Cells are then analyzed to determine the percentage of cells with corrected eGFP genes as described in Example 3.

NC(=O)NO [HU, hydroxyurea]
increase of correction efficiency compared to cells treated with neither agent [1]: 25 fold
correction efficiency (frequency of gene repair) ([2]; 1 mM HU 24 hours before electroporation, asynchronous cells): 2.2% and ~3%
correction efficiency in synchronized cells relative to asynchronous cells ([2]; 1 mM HU or 10 mM thymidine, DTB synchronized vs asynchronous): more than three times
effect of dose on correction efficiency ([2]; HU 0.3-5 mM or VP16 0.5-10 μM for 24 hours prior to electroporation): increase correction efficiency in a dose-dependent manner
effect on viability (DLD-1-1 cells): viability is moderately reduced
DNA double strand breaks (DNA of DLD-1-1 cells): induce DSBs; also recorded: progressive increase in the amount of damaged DNA
